Measurements as given in patent US10681909B2, “Herbicidal triazoles” (FMC Corporation, priority 2014, dated 2020).

Columns and labels:
[1] = system: oilseed rape; experiment: Test D postemergence; format: in vivo, Brassica napus; details: scale 0 to 100
Source text: (§1) Seeds of plant species selected from bluegrass (annual bluegrass, Poa annua), blackgrass (Alopecurus myosuroides), canarygrass (Phalaris minor), chickweed (common chickweed, Stellaria media), galium (catchweed bedstraw, Galium aparine), bromegrass, down (downy bromegrass, Bromus tectorum), Russian thistle (Salsola kali), field poppy (Papaver rhoeas), field violet (Viola arvensis), foxtail, green (green foxtail, Setaria viridis), deadnettle (henbit deadnettle, Lamium amplexicaule), ryegrass, Ital. (Italian ryegrass, Lolium multiflorum), kochia (Kochia scoparia), lambsquarters (Chenopodium album), oilseed rape (Brassica napus), pigweed (Amaranthus retroflexus), chamomile (scentless chamomile, Matricaria inodora), speedwell (bird's-eye speedwell, Veronica persica), barley, spring (spring barley, Hordeum vulgare), wheat, spring (spring wheat, Triticum aestivum), buckwheat, wild (wild buckwheat, Polygonum convolvulus), wild mustard (Sinapis arvensis), oat, wild (wild oat, Avena fatua), radish, wild (wild radish, Raphanus raphanistrum), […]), barley, winter (winter barley, Hordeum vulgare), and wheat, winter (winter wheat, Triticum aestivum) were planted into a silt loam soil and treated preemergence with test chemicals formulated in a non-phytotoxic solvent mixture which included a surfactant. At the same time, these species were planted in pots containing Sunshine Redi-Earth® planting medium comprising spaghnum peat moss, vermiculite, starter nutrients and dolomitic limestone and treated with postemergence applications of the test chemicals formulated in the same manner. Plants ranged in height from 2 to 18 cm (1- to 4-leaf stage). Treated plants and controls were maintained in a controlled growth environment for 14 to 21 d after which time all species were compared to controls and visually evaluated. […] A dash (-) response means no test result.

[2] = system: buckwheat, wild; experiment: Test D postemergence; format: in vivo, Polygonum convolvulus; details: scale 0 to 100
Source text: as §1

[3] = system: velvetleaf; experiment: Test A postemergence; format: in vivo, Abutilon theophrasti; details: Abutilon theophrasti, post-emergence, 240 h, 0 to 100 scale (0 no effect, 100 complete control), approx. 10 d, read-out: Plant response rating, Velvetleaf
Procedure, shortened: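 For preemergence, seeds were sown in a loam soil-sand blend and given a directed soil spray of test chemical in a non-phytotoxic solvent mixture with surfactant. For postemergence, plants in pots of the same blend were sprayed with the same formulation at the one- to two-leaf stage, 2 to 10 cm tall.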

[4] = system: radish, wild; experiment: Test D postemergence; format: in vivo, Raphanus raphanistrum; details: scale 0 to 100
Source text: as §1

[5] = system: galium; experiment: Test D preemergence; format: in vivo, Galium aparine; details: for Plant response rating: Galium: scale 0 to 100; for Plant response rating (0 to 100), Galium: 16 g ai/ha, 0 is no effect, 100 is complete control
Source text: as §1

[6] = system: wheat, winter; experiment: Test D preemergence; format: in vivo, Triticum aestivum; details: for Plant response rating: Wheat, Winter: scale 0 to 100; for Plant response rating (0 to 100), Wheat, Winter: 16 g ai/ha, 0 is no effect, 100 is complete control
Source text: as §1

[7] = system: wheat, spring; experiment: Test D preemergence; format: in vivo, Triticum aestivum; details: for Plant response rating: Wheat, Spring: scale 0 to 100; for Plant response rating (0 to 100), Wheat, Spring: 16 g ai/ha, 0 is no effect, 100 is complete control
Source text: as §1

[8] = system: oilseed rape; experiment: Test D preemergence; format: in vivo, Brassica napus; details: for Plant response rating: Oilseed Rape: scale 0 to 100; for Plant response rating (0 to 100), Oilseed Rape: 16 g ai/ha, 0 is no effect, 100 is complete control
Source text: as §1

[9] = system: oat, wild; experiment: Test D preemergence; format: in vivo, Avena fatua; details: for Plant response rating: Oat, Wild: scale 0 to 100; for Plant response rating (0 to 100), Oat, Wild: 16 g ai/ha, 0 is no effect, 100 is complete control
Source text: as §1

[10] = system: galium; experiment: Test D postemergence; format: in vivo, Galium aparine; details: scale 0 to 100
Source text: as §1

[11] = system: kochia; experiment: Test A postemergence; format: in vivo, Kochia scoparia; details: 0 to 100 scale (0 no effect, 100 complete control), approx. 10 d
Procedure, shortened: (§2)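 Seeds sown in loam soil–sand blend received a directed preemergence soil spray of test chemical in non-phytotoxic solvent with surfactant; postemergence plants, 2 to 10 cm at one- to two-leaf stage, were sprayed with the same formulation. Injury visually rated versus untreated controls after ~10 d in greenhouse, 0–100 scale.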

[12] = system: ryegrass, Italian; experiment: Test A preemergence; format: in vivo, Lolium multiflorum; details: 0 to 100 scale (0 no effect, 100 complete control)
Procedure, shortened: as §2

[13] = system: blackgrass; experiment: Test A postemergence; format: in vivo, Alopecurus myosuroides; details: 0 to 100 scale (0 no effect, 100 complete control), approx. 10 d
Procedure, shortened: as §2

For CCOc1nc(-c2ccc(F)cc2)nn1Cc1ccnc(C(F)(F)F)c1 [Compound 8, 4-[[5-ethoxy-3-(4-fluorophenyl)-1H-1,2,4-triazol-1-yl]methyl]-2-(trifluoromethyl)pyridine], the “Plant response rating: Oilseed Rape” value ([1]; 31 g ai/ha) was 70, the “Plant response rating: Oilseed Rape” value ([1]; 62 g ai/ha) was 75 and the “Plant response rating: Oilseed Rape” value ([1]; 125 g ai/ha) was 100. The “Plant response rating: Oilseed Rape” value ([1]; 250 g ai/ha) was 100, the “Plant response rating: Buckwheat, Wild” value ([2]; 31 g ai/ha) was 70 and the “Plant response rating: Buckwheat, Wild” value ([2]; 62 g ai/ha) was 70. The “Plant response rating: Buckwheat, Wild” value ([2]; 125 g ai/ha) was 95, the “Plant response rating: Buckwheat, Wild” value ([2]; 250 g ai/ha) was 95 and the pest or weed control at 125 g/ha ([3]; 125 g ai/ha) was 90%. For the same molecule, the pest or weed control at 500 g/ha ([3]; 500 g ai/ha) was 100%, the “Plant response rating: Radish, Wild” value ([4]; 31 g ai/ha) was 80 and the “Plant response rating: Radish, Wild” value ([4]; 62 g ai/ha) was 100. For the same molecule, the “Plant response rating: Radish, Wild” value ([4]; 125 g ai/ha) was 100, the “Plant response rating: Radish, Wild” value ([4]; 250 g ai/ha) was 100 and the “Plant response rating: Galium” value ([5]; 62 g ai/ha) was 35. For the same molecule, the “Plant response rating: Galium” value ([5]; 125 g ai/ha) was 50, the “Plant response rating: Galium” value ([5]; 250 g ai/ha) was 70 and the “Plant response rating: Wheat, Winter” value ([6]; 62 g ai/ha) was 25. The “Plant response rating: Wheat, Winter” value ([6]; 125 g ai/ha) was 40, the “Plant response rating: Wheat, Winter” value ([6]; 250 g ai/ha) was 65 and the “Plant response rating: Wheat, Spring” value ([7]; 62 g ai/ha) was 15. The “Plant response rating: Wheat, Spring” value ([7]; 125 g ai/ha) was 35, the “Plant response rating: Wheat, Spring” value ([7]; 250 g ai/ha) was 70 and the “Plant response rating: Oilseed Rape” value ([8]; 62 g ai/ha) was 60. For the same molecule, the “Plant response rating: Oilseed Rape” value ([8]; 125 g ai/ha) was 100, the “Plant response rating: Oilseed Rape” value ([8]; 250 g ai/ha) was 100 and the “Plant response rating: Oat, Wild” value ([9]; 62 g ai/ha) was 40. For the same molecule, the “Plant response rating: Oat, Wild” value ([9]; 125 g ai/ha) was 70, the “Plant response rating: Oat, Wild” value ([9]; 250 g ai/ha) was 80 and the “Plant response rating: Galium” value ([10]; 31 g ai/ha) was 75. The “Plant response rating: Galium” value ([10]; 62 g ai/ha) was 90, the “Plant response rating: Galium” value ([10]; 125 g ai/ha) was 95 and the “Plant response rating: Galium” value ([10]; 250 g ai/ha) was 95.
In the case of FC(F)(F)COc1nc(-c2ccccc2)nn1Cc1ccnc(C(F)(F)F)c1 [Compound 24], the “Plant response rating: Oilseed Rape” value ([1]; 16 g ai/ha) is reported as 65, the “Plant response rating: Oilseed Rape” value ([1]; 31 g ai/ha) is reported as 75 and the “Plant response rating: Oilseed Rape” value ([1]; 62 g ai/ha) is reported as 80. The “Plant response rating: Oilseed Rape” value ([1]; 125 g ai/ha) was 85, the “Plant response rating: Buckwheat, Wild” value ([2]; 16 g ai/ha) was 50 and the “Plant response rating: Buckwheat, Wild” value ([2]; 31 g ai/ha) was 55. For the same molecule, the “Plant response rating: Buckwheat, Wild” value ([2]; 62 g ai/ha) was 60, the “Plant response rating: Buckwheat, Wild” value ([2]; 125 g ai/ha) was 70 and the “Plant response rating: Radish, Wild” value ([4]; 16 g ai/ha) was 70. The “Plant response rating: Radish, Wild” value ([4]; 31 g ai/ha) was 95, the “Plant response rating: Radish, Wild” value ([4]; 62 g ai/ha) was 95 and the “Plant response rating: Radish, Wild” value ([4]; 125 g ai/ha) was 95. For the same molecule, the “Plant response rating, Kochia” value ([11]; 125 g ai/ha) was 90, the “Plant response rating, Kochia” value ([11]; 500 g ai/ha) was 90 and the “Plant response rating (0 to 100), Galium” value [5] was 55. For the same molecule, the “Plant response rating: Galium” value ([5]; 62 g ai/ha) was 65, the “Plant response rating: Galium” value ([5]; 125 g ai/ha) was 75 and the “Plant response rating (0 to 100), Wheat, Winter” value [6] was 15. For the same molecule, the “Plant response rating: Wheat, Winter” value ([6]; 62 g ai/ha) was 20, the “Plant response rating: Wheat, Winter” value ([6]; 125 g ai/ha) was 20 and the “Plant response rating (0 to 100), Wheat, Spring” value [7] was 15. For the same molecule, the “Plant response rating: Wheat, Spring” value ([7]; 62 g ai/ha) was 25, the “Plant response rating: Wheat, Spring” value ([7]; 125 g ai/ha) was 15 and the “Plant response rating, Ryegrass, Italian” value ([12]; 125 g ai/ha) was 70. The “Plant response rating, Ryegrass, Italian” value ([12]; 500 g ai/ha, approx. 10 d) was 80, the “Plant response rating (0 to 100), Oilseed Rape” value [8] was 15 and the “Plant response rating: Oilseed Rape” value ([8]; 62 g ai/ha) was 55. The “Plant response rating: Oilseed Rape” value ([8]; 125 g ai/ha) was 70, the “Plant response rating (0 to 100), Oat, Wild” value [9] was 30 and the “Plant response rating: Oat, Wild” value ([9]; 62 g ai/ha) was 30. The “Plant response rating: Oat, Wild” value ([9]; 125 g ai/ha) was 35, the “Plant response rating: Galium” value ([10]; 16 g ai/ha) was 55 and the “Plant response rating: Galium” value ([10]; 31 g ai/ha) was 70. The “Plant response rating: Galium” value ([10]; 62 g ai/ha) was 65, the “Plant response rating: Galium” value ([10]; 125 g ai/ha) was 75 and the “Plant response rating, Blackgrass” value ([13]; 125 g ai/ha) was 40. The “Plant response rating, Blackgrass” value ([13]; 500 g ai/ha) was 60.
For CCOc1nc(-c2ccccc2)nn1Cc1ccnc(C(F)(F)F)c1 [Compound 27], the “Plant response rating: Oilseed Rape” value ([1]; 16 g ai/ha) was 80, the “Plant response rating: Oilseed Rape” value ([1]; 31 g ai/ha) was 85 and the “Plant response rating: Oilseed Rape” value ([1]; 62 g ai/ha) was 90. The “Plant response rating: Oilseed Rape” value ([1]; 125 g ai/ha) was 100, the “Plant response rating: Buckwheat, Wild” value ([2]; 16 g ai/ha) was 65 and the “Plant response rating: Buckwheat, Wild” value ([2]; 31 g ai/ha) was 80. The “Plant response rating: Buckwheat, Wild” value ([2]; 62 g ai/ha) was 70, the “Plant response rating: Buckwheat, Wild” value ([2]; 125 g ai/ha) was 85 and the “Plant response rating: Radish, Wild” value ([4]; 16 g ai/ha) was 85. The “Plant response rating: Radish, Wild” value ([4]; 31 g ai/ha) was 90, the “Plant response rating: Radish, Wild” value ([4]; 62 g ai/ha) was 100 and the “Plant response rating: Radish, Wild” value ([4]; 125 g ai/ha) was 100. The “Plant response rating, Kochia” value ([11]; 125 g ai/ha) was 90, the “Plant response rating, Kochia” value ([11]; 500 g ai/ha) was 90 and the “Plant response rating (0 to 100), Galium” value [5] was 70. For the same molecule, the “Plant response rating: Galium” value ([5]; 62 g ai/ha) was 100, the “Plant response rating: Galium” value ([5]; 125 g ai/ha) was 100 and the “Plant response rating (0 to 100), Wheat, Winter” value [6] was 25. The “Plant response rating: Wheat, Winter” value ([6]; 62 g ai/ha) was 30, the “Plant response rating: Wheat, Winter” value ([6]; 125 g ai/ha) was 30 and the “Plant response rating (0 to 100), Wheat, Spring” value [7] was 15. For the same molecule, the “Plant response rating: Wheat, Spring” value ([7]; 62 g ai/ha) was 20, the “Plant response rating: Wheat, Spring” value ([7]; 125 g ai/ha) was 35 and the “Plant response rating, Ryegrass, Italian” value ([12]; 125 g ai/ha) was 90. The “Plant response rating, Ryegrass, Italian” value ([12]; 500 g ai/ha, approx. 10 d) was 100, the “Plant response rating (0 to 100), Oilseed Rape” value [8] was 5 and the “Plant response rating: Oilseed Rape” value ([8]; 62 g ai/ha) was 60. The “Plant response rating: Oilseed Rape” value ([8]; 125 g ai/ha) was 80, the “Plant response rating (0 to 100), Oat, Wild” value [9] was 25 and the “Plant response rating: Oat, Wild” value ([9]; 62 g ai/ha) was 45. The “Plant response rating: Oat, Wild” value ([9]; 125 g ai/ha) was 75, the “Plant response rating: Galium” value ([10]; 16 g ai/ha) was 70 and the “Plant response rating: Galium” value ([10]; 31 g ai/ha) was 75. For the same molecule, the “Plant response rating: Galium” value ([10]; 62 g ai/ha) was 100, the “Plant response rating: Galium” value ([10]; 125 g ai/ha) was 100 and the “Plant response rating, Blackgrass” value ([13]; 125 g ai/ha) was 70. For the same molecule, the “Plant response rating, Blackgrass” value ([13]; 500 g ai/ha) was 80.
